Reference: patent US20110144160A1, “Antagonists of Prostaglandin D2 Receptors” (Amira Pharmaceuticals, Inc., priority 2008, published 2011)

Legend:
human DP2 receptor = molecular target: T1, human DP2 receptor (Homo sapiens, UniProt Q9Y5Y4); experiment: DP2/CRTH2 binding assay ([3H]PGD2 radioligand); conditions: membranes of HEK293 cells expressing recombinant human DP2, 1 nM [3H]PGD2; read-out: hDP2
T1 construct: expressed in transfected cells
T1 sequence (Q9Y5Y4 1-395): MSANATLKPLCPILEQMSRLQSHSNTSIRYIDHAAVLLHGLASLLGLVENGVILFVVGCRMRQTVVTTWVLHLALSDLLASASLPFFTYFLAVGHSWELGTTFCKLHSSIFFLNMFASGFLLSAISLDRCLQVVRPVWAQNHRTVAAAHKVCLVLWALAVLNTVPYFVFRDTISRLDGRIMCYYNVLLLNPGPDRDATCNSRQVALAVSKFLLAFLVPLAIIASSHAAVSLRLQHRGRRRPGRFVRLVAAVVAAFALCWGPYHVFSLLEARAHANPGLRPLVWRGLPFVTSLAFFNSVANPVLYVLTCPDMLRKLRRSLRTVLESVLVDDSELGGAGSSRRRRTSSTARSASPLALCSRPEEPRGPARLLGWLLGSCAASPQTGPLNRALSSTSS
Procedure: The ability of a compound to bind to the human DP2 receptor is assessed via a radioligand binding assay using [^3H]PGD2. HEK293 cells stably expressing recombinant human DP2 are resuspended in 10 mM Hepes, 7.4 containing 1 mM DTT, lysed and centrifuged at 75,000×g to pellet the membranes. The membranes are resuspended in 10 mM Hepes, 7.4 containing 1 mM DTT and 10% glycerol to approximately 5 mg protein/ml. Membranes (2-10 μg protein/well) are incubated in 96-well plates with 1 nM [^3H]PGD2 and test compound in Assay Buffer (50 mM Hepes, 10 mM MnCl2, 1 mM EDTA, plus or minus 0.2% human serum albumin, pH 7.4) for 60 minutes at room temperature. The reactions are terminated by rapid filtration through Whatman GF/C glass fibre filter plates. The filter plates were pre-soaked in 0.33% polythylenimine for 30 minutes at room temperature then washed in Wash Buffer (50 mM Hepes, 0.5 M NaCl pH 7.4) prior to harvesting. After harvesting, the filter plates are washed 3 times with 1 ml cold Wash Buffer then dried. Scintillant is then added to the plates and the radioactivity retained on the filters is determined on a Packard TopCount (Perkin Elmer). Specific binding is determined as total radioactive binding minus non-specific binding in the presence of 10 μM PGD2. IC50s were determined using GraphPad prism analysis of drug titration curves.

human DP1 receptor = molecular target: T2, human DP1 receptor (Homo sapiens, UniProt Q13258); experiment: DP1 binding assay ([3H]BWA868C radioligand); conditions: human platelet membranes, 2 nM [3H]BWA868C; read-out: hDP1
T2 construct: tissue Biological Specialty Corporation; host or cells: human platelets, membrane preparation
T2 sequence (Q13258 1-359): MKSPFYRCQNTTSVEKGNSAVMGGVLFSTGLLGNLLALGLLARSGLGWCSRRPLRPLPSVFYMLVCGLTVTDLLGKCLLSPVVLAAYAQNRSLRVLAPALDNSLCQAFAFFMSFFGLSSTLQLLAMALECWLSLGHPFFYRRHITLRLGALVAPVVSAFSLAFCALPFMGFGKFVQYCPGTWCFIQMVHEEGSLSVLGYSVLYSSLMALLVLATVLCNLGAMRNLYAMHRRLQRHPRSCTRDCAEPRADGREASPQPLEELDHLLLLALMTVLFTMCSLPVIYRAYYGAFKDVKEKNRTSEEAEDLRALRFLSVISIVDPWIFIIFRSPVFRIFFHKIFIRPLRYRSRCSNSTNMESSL
Procedure: The ability of a compound to bind to the human DP1 receptor was evaluated via a radioligand membrane binding assay using the DP1 selective synthetic ligand [^3H]BWA868C. Packed human platelets (Biological Specialty Corporation), were resuspended in 6 volumes of Hepes/HBSS buffer (10 mM Hepes, 1 mM DTT in Hanks Balanced Salt Solution (HBSS), lysed and centrifuged at 75,000×g to pellet the membranes. Membranes were resuspended in Hepes/HBSS buffer to approximately 12 mg protein/ml. Membranes (20 μg protein/well) are incubated in 96-well plates with 2 nM [^3H]BWA868C and test compound in Assay Buffer (50 mM Hepes, 10 mM MnCl2, 1 mM EDTA, plus or minus 0.2% human serum albumin, pH 7.4) for 60 minutes at room temperature. The reactions are terminated by rapid filtration through Whatman GF/C glass fibre filter plates. The filter plates were pre-soaked in 0.33% polethylenimine for 30 minutes at room temperature then washed in Wash Buffer (50 mM Hepes, 0.5 M NaCl pH 7.4) prior to harvesting. After harvesting, the filter plates are washed 3 times with 1 ml cold Wash Buffer then dried. Scintillant is then added to the plates and the radioactivity retained on the filters is determined on a Packard TopCount (Perkin Elmer). Specific binding is determined as total radioactive binding minus non-specific binding in the presence of 10 μM BW A868C. IC50s were determined using GraphPad prism analysis of drug titration curves.

| Structure (SMILES) | IC50 (human DP2 receptor) [nM] | IC50 (human DP1 receptor) [nM] |
| --- | --- | --- |
| COc1ccc(CC(=O)O)cc1Oc1ccc(NC(=O)c2ccc(C(F)(F)F)cc2)cc1CSCC(F)(F)F [Compound 69, {4-methoxy-3-[2-(2,2,2-trifluoro-ethylsulfanylmethyl)-4-(4-trifluoromethyl-benzoylamino)-phenoxy]-phenyl}-acetic acid] | < 300 | < 300 |
| CC(C)(C)SCc1cc(NC(=O)c2ccc(Cl)cc2)ccc1Oc1cc(CC(=O)O)ccc1Cl [Compound 60, {3-[2-tert-Butylsulfanylmethyl-4-(4-chloro-benzoylamino)-phenoxy]-4-chloro-phenyl}-acetic acid] | < 300 | < 300 |
| CC(C)C(=O)Nc1ccc(Oc2cc(CC(=O)O)ccc2Cl)c(CSC(C)(C)C)c1 [Compound 61, [3-(2-tert-Butylsulfanylmethyl-4-isobutyrylamino-phenoxy)-4-chloro-phenyl]-acetic acid] | < 300 | < 300 |
| COc1ccc(CC(=O)O)cc1Oc1ccc(NC(=O)c2cc(Cl)cc(Cl)c2)cc1CSC(C)(C)C [Compound 66, {3-[2-tert-Butylsulfanylmethyl-4-(3,5-dichloro-benzoylamino)-phenoxy]-4-methoxy-phenyl}-acetic acid] | < 300 | < 300 |
| COc1ccc(CC(=O)O)cc1Oc1ccc(N2CCNC2=O)cc1CSCC(F)(F)F [Compound 57, {4-Methoxy-3-[4-(2-oxo-imidazolidin-1-yl)-2-(2,2,2-trifluoro-ethylsulfanylmethyl)-phenoxy]-phenyl}-acetic acid] | 300 to 1000 | > 1000 |
| COc1ccc(CC(=O)O)cc1Oc1ccc(NC(=O)c2cccc(F)c2)cc1CSC(C)(C)C [Compound 62, {3-[2-tert-Butylsulfanylmethyl-4-(3-fluoro-benzoylamino)-phenoxy]-4-methoxy-phenyl}-acetic acid] | < 300 | < 300 |
| COc1ccc(CC(=O)O[C@@H]2O[C@@H](C(=O)O)[C@H](O)[C@@H](O)[C@@H]2O)cc1Oc1ccc(NC(=O)C(C)(C)C)cc1CSC(C)(C)C [Compound 77, (2R,3R,4R,5S,6S)-6-(2-{3-[2-tert-Butylsulfanylmethyl-4-(2,2-dimethyl-propionylamino)-phenoxy]-4-methoxy-phenyl}-acetoxy)-3,4,5-trihydroxy-tetrahydro-pyran-2-carboxylic acid] | < 300 | < 300 |
| COc1ccc(CC(=O)O)cc1Oc1ccc(NC(=O)c2ccc(Cl)cc2Cl)cc1CSC(C)(C)C [Compound 65, {3-[2-tert-Butylsulfanylmethyl-4-(2,4-dichloro-benzoylamino)-phenoxy]-4-methoxy-phenyl}-acetic acid] | < 300 | < 300 |
| O=C(O)CCn1c2c(c3ccccc31)C[C@H](NS(=O)(=O)c1ccc(F)cc1)CC2 [Ramatroban, reference compound] | 300 to 1000 | > 1000 |
| COc1ccc(CC(=O)O)cc1Oc1ccc(NC(=O)c2ccc(Cl)cc2)cc1CSCc1ccccc1 [Compound 18, {3-[2-Benzylsulfanylmethyl-4-(4-chloro-benzoylamino)-phenoxy]-4-methoxy-phenyl}-acetic acid] | < 300 | < 300 |
| COc1ccc(CC(=O)O)cc1Oc1ccc(NC(=O)c2cccc(C(F)(F)F)c2)cc1CSCC(F)(F)F [Compound 68, {4-methoxy-3-[2-(2,2,2-trifluoro-ethylsulfanylmethyl)-4-(3-trifluoromethyl-benzoylamino)-phenoxy]-phenyl}-acetic acid] | < 300 | < 300 |
| COc1ccc(CC(=O)O)cc1Oc1ccc(NC(=O)c2cc(F)cc(F)c2)cc1CSC(C)(C)C [Compound 67, {3-[2-tert-Butylsulfanylmethyl-4-(3,5-difluoro-benzoylamino)-phenoxy]-4-methoxy-phenyl}-acetic acid] | < 300 | < 300 |
| COc1ccc(CC(=O)O)cc1Oc1ccc(NC(=O)c2ccc(Cl)cc2)cc1CSc1ccccc1 [Compound 17, {3-[4-(4-Chloro-benzoylamino)-2-phenylsulfanylmethyl-phenoxy]-4-methoxy-phenyl}-acetic acid] | < 300 | > 1000 |
| COc1ccc(CC(=O)O)cc1Oc1ccc(NC(=O)C(C)(C)C)cc1CSC(C)(C)C [Compound 7, {3-[2-tert-Butylsulfanylmethyl-4-(2,2-dimethyl-propionylamino)-phenoxy]-4-methoxy-phenyl}-acetic acid] | < 300 | > 1000 |
| COc1ccc(CC(=O)O)cc1Oc1ccc(NC(=O)c2ccc(Cl)cc2)cc1CSCC(F)(F)F [Compound 1, {3-[4-(4-Chloro-benzoylamino)-2-(2,2,2-trifluoro-ethylsulfanylmethyl)-phenoxy]-4-methoxy-phenyl}-acetic acid] | < 300 | > 1000 |
| COc1ccc(CC(=O)O)cc1Oc1ccc(NC(=O)C(C)(C)C)cc1CS(=O)(=O)C(C)(C)C [Compound 74, {3-[4-(2,2-Dimethyl-propionylamino)-2-(2-methyl-propane-2-sulfonylmethyl)-phenoxy]-4-methoxy-phenyl}-acetic acid] | < 300 | < 300 |
| COc1ccc(CC(=O)O)cc1Oc1ccc(NC(=O)c2ccccc2)cc1CSC(C)(C)C [Compound 58, [3-(4-benzoylamino-2-tert-butylsulfanylmethyl-phenoxy)-4-methoxy-phenyl]-acetic acid] | < 300 | < 300 |
| COc1ccc(CC(=O)O)cc1Oc1ccc(NC(=O)c2ccncc2)cc1CSCC(F)(F)F [Compound 71, {4-methoxy-3-[4-[(pyridine-4-carbonyl)-amino]-2-(2,2,2-trifluoro-ethylsulfanylmethyl)-phenoxy]-phenyl}-acetic acid] | < 300 | 300 to 1000 |
| COc1ccc(CC(=O)O)cc1Oc1ccc(NC(=O)c2ccc(Cl)cc2)cc1CSc1nnc(C)s1 [Compound 19, {3-[4-(4-Chloro-benzoylamino)-2-(5-methyl-[1,3,4]thiadiazol-2-ylsulfanylmethyl)-phenoxy]-4-methoxy-phenyl}-acetic acid] | < 300 | > 1000 |
| CC(C)(C)SCc1cc(NC(=O)C(C)(C)C)ccc1Oc1cc(CC(=O)O)ccc1O [Compound 75, {3-[2-tert-Butylsulfanylmethyl-4-(2,2-dimethyl-propionylamino)-phenoxy]-4-hydroxy-phenyl}-acetic acid] | < 300 | < 300 |
| COc1ccc(CC(=O)O)cc1Oc1ccc(NC(=O)c2ccc(F)cc2)cc1CSC(C)(C)C [Compound 63, {3-[2-tert-Butylsulfanylmethyl-4-(4-fluoro-benzoylamino)-phenoxy]-4-methoxy-phenyl}-acetic acid] | < 300 | < 300 |
| COc1ccc(CC(=O)O)cc1Oc1ccc(NC(=O)c2cccnc2)cc1CSCC(F)(F)F [Compound 70, {4-methoxy-3-[4-[(pyridine-3-carbonyl)-amino]-2-(2,2,2-trifluoro-ethylsulfanylmethyl)-phenoxy]-phenyl}-acetic acid] | < 300 | 300 to 1000 |
